Data published in ChEMBL document CHEMBL1155188, “Sesquiterpenoids from Pilea cavaleriei subsp. crenata” (Bioorg Med Chem Lett, 2009).
Values after ≈ are worked out from the molar mass of the structure shown. Active and inactive are the calls of the source. The rule behind the calls is not given here.

What was measured:
Staphylococcus aureus = experiment: Antibacterial activity against Staphylococcus aureus by microdilution assay; type: functional
SK-OV-3 = experiment: Cytotoxicity against human SKOV3 cells after 48 hrs by MTT assay; type: functional, cell-based
[1] = Cytotoxicity against human AGZY cells after 48 hrs by MTT assay; type: functional, cell-based
Escherichia coli = experiment: Antibacterial activity against Escherichia coli by microdilution assay; type: functional, organism-based
MCF7 = experiment: Cytotoxicity against human MCF7 cells after 48 hrs by MTT assay; type: functional, cell-based; conditions: MCF7, 48 h
EJ = experiment: Cytotoxicity against human EJ cells after 48 hrs by MTT assay; type: functional, cell-based
SGC-7901 = experiment: Cytotoxicity against human SGC7901 cells after 48 hrs by MTT assay; type: functional, cell-based
[2] = Cytotoxicity against human GLC82 cells after 48 hrs by MTT assay; type: functional, cell-based
A549 = experiment: Cytotoxicity against human A549 cells by SRB assay; type: functional, cell-based
K562 = experiment: Cytotoxicity against human K562 cells after 48 hrs by MTT assay; type: functional, cell-based
[3] = Cytotoxicity against human BIU87 cells after 48 hrs by MTT assay; type: functional, cell-based
[4] = Homo sapiens, K562, 48 h, read-out: IC50

| Compound | MIC (Staphylococcus aureus) | IC50 (SK-OV-3) | IC50 ([1]; Homo sapiens, AGZY, 48 h, read-out: IC50) | MIC (Escherichia coli) | IC50 (MCF7) | IC50 (EJ) | IC50 (SGC-7901; Homo sapiens, SGC-7901, 48 h, read-out: IC50) | IC50 [2] | IC50 (A549) | IC50 (K562; [4]) | IC50 [3] | IC50 ([1]; agzy) | IC50 (SGC-7901; sgc-7901) | IC50 (K562; k562) |
| --- | --- | --- | --- | --- | --- | --- | --- | --- | --- | --- | --- | --- | --- | --- |
| C/C1=C\CC(C)(C)C[C@@H](OC(=O)/C=C/c2ccc(O)cc2)C/C(C)=C/CC1 | inactive | Not Active | 27.8 µg/mL (≈ 75.5 µM) | inactive | 40.5 µg/mL (≈ 110 µM) | Not Active | 49.4 µg/mL (≈ 134 µM) | Not Active | 25.6 µg/mL (≈ 69.5 µM) | 12 µg/mL (≈ 32.6 µM) | Not Active |  |  |  |
| O=c1[nH]cc(F)c(=O)[nH]1 [FLUOROURACIL] |  |  |  |  |  |  |  |  | 2 µg/mL (≈ 15.4 µM) |  |  |  |  |  |
| C=C1CC/C=C(\C)C[C@H](OC(=O)/C=C/c2ccc(O)cc2)CC(C)(C)C[C@@H]1OO | 45 µg/mL (≈ 112 µM) | Not Active |  | inactive | 23.4 µg/mL (≈ 58.4 µM) | Not Active |  | Not Active | 33.4 µg/mL (≈ 83.3 µM) | 57.4 µg/mL (≈ 143 µM) | Not Active | Not Active | Not Active |  |
| CC(C)[C@@H]1CC[C@]2(C)[C@H]3CC[C@]2(C)[C@H](OC(=O)/C=C/c2ccc(O)cc2)[C@@H]13 |  | Not Active |  |  |  | Not Active |  | Not Active |  | 41.7 µg/mL (≈ 113 µM) | Not Active | Not Active | Not Active |  |
| GENTAMICIN | 0.05 µg/mL |  |  | 0.05 µg/mL |  |  |  |  |  |  |  |  |  |  |
| C=C1CC/C=C(\C)C[C@H](OC(=O)/C=C/c2ccc(O)c([N+](=O)[O-])c2)CC(C)(C)C[C@@H]1O |  | Not Active |  |  |  | Not Active |  | Not Active |  |  | Not Active | Not Active | Not Active | Not Active |
